Experimental data taken from patent US12503448B2, “Antibacterial and antiparasitic quinoxaline-2,3-diamine derivatives” (University College Cardiff Consultants Limited, priority 2019, dated 2025).
Like-named read-outs stand apart in the source and are kept apart here.

Tests used:
[1] = system: S. mansoni adult worms; experiment: Adult worm drug screen (WHO scoring, WormassayGP2); type: cell-based, Schistosoma mansoni
Text: Mice (MF-1 mice, Harlan, UK), infected 7 weeks previously with 180 cercaria, were euthanised with an intraperitoneal injection of phenobarbital/heparin solution. Adult worms were recovered by perfusion of the portal system and subjected to drug screening as previously described in Padalino G, Ferla S, Brancale A, Chalmers I W, Hoffmann K F. Int J Parasitol Drugs Drug Resist. 2018 December; 8(3):559-570; in Whiteland H L, Chakroborty A, Forde-Thomas J E, Crusco A, Cookson A, Hollinshead J, Fenn C A, Bartholomew B, Holdsworth P A, Fisher M, Nash R J, Hoffmann K F. Int J Parasitol Drugs Drug Resist. 2018 December; 8(3):465-474; and in Crusco A, Bordoni C, Chakroborty A, Whatley K C L, Whiteland H, Westwell A D, Hoffmann K F. Eur J Med Chem. 2018 May 25; 152:87-100. The data obtained in this manner is shown in Table 1 in the columns labelled “Adult worm”.
Regarding the quantification of drug treatment on adult worms (e.g. decreased activity, paralysis or sluggishness), two different approaches were used, as described below. Where egg deposition was noticed, eggs were removed and counted using a Sedgewick rafter slide.
Adult worms were scored using the standardized microscopic WHO-TDR scoring system previously described by Ramirez, B., Bickle, Q., Yousif, F., Fakorede, F., Mouries, M.-A., Nwaka, S. in Schistosomes: Challenges in compound screening, Expert Opin Drug Discov. 2007 October; 2(s1): S53-61. This scoring system (0-4) identifies changes in worm movement and is defined according to the following scoring matrix: 0=no movement, 1=no movement with visible gut peristalsis, 2=minimal movement (occasional movement from anterior or posterior end of the worm), 3=slow continuous movement and 4=normal movement.
A digital image processing-based system was also used to assess parasite motility after drug treatment and is a modification of methods previously described by Marcellino C., Gut, J., Lim, K., Singh R., McKerrow, L. and Sakanari, J. WormAssay: a novel computer application for whole-plate motion-based screening of macroscopic parasites. PLoS Negl Trop Dis. 2012 January:6(1):e1494. This allowed for objective verification of the WHO method described above. The data obtained with this quantification method is shown in Table 1 in the columns labelled “Adult worm”.

[2] = MTT assay on HepG2 cells; type: cell-based; conditions: human
Procedure: MTT Assay on HepG2 Cells Human Hepatocyte Carcinoma (HepG2) cells (85011430, Sigma Aldrich) were used to assess the overt toxicity of these anti-infective compounds. […] A negative control (1% v/v Triton X-100; X100, Sigma-Aldrich) was also included in each screen. After addition of compounds, each plate was then incubated for a further 20 hrs before application of MTT reagent (prepared as described in Nur-[…], Bari A, Ghabbour […], Hoffmann […] Nat Prod. 2017 Jun. 23; 80(6):1900-1908 for the assessment of compound cytotoxicity using the MTT assay. […] The plate was then further incubated for 4 hrs. After incubation, each plate was blotted dry under the laminar flow to remove the MTT treated culture media. A 100 μl DMSO: isopropanol (1:1) solution was then added to each well and the plate was then subsequently incubated for 10 minutes at 37° C. Following incubation, each plate was shaken again and then absorbance measured at 570 nm. The absorbance reading was corrected based on the average value of the wells used as blank (no cells). […] The data obtained in this manner is shown in Table 1 in the columns labelled “HepG2”. […] The selectivity indexes for schistosomula and adult worms are shown in the final two columns in Table 1.

[3] = system: S. mansoni schistosomula; experiment: 72 hours schistosomula drug screen; type: cell-based, Schistosoma mansoni; conditions: for Selectivity Index Schistosomula: HepG2 CC50 over schistosomula EC50; for EC50: Schistosoma mansoni
Procedure: Biological Screening 72 Hours Schistosomula Drug Screen […] G. Colley, […], Schistosoma mansoni: simplified method for the production of schistosomules., Exp. Parasitol. 35 (1974) 44-51. Newly transformed schistosomula were prepared for 72 hour high throughput screening (HTS) in 384-well black-sided microtiter plates (Perkin Elmer, MA, USA) as described in M. Nur-e-alam, M. Yousaf, […]. Bari, H. A. Ghabbour, […]. Ho, A. J. […], Neoclerodane Diterpenoids from […], Teucrium […]. Nat. […] The data obtained in this manner is shown in Table 1 in the columns labelled “Phenotype”, “Motility” and “Schistosomula average”.

[4] = schistosomula, 72 hour culture, read-out: EC50 Motility
[5] = schistosomula, 72 hour culture, read-out: EC50 Phenotype

| Structure (SMILES) | Selectivity Index Adult ([1]; HepG2 CC50 over adult worm EC50) | EC50 ([1]; Schistosoma mansoni, adult worms) [µM] | CC50 at 24 h [2] [µM] | Selectivity Index Schistosomula [3] | EC50 [3, 4] [µM] | EC50 [3, 5] [µM] | EC50 ([3]; average of phenotype and motility, read-out: EC50 Schistosomula average) [µM] |
| --- | --- | --- | --- | --- | --- | --- | --- |
| O=[N+]([O-])c1ccc2nc(Nc3ccc(F)cc3)c(Nc3ccc(F)cc3)nc2c1 [Compound 6, N^2, N^3-bis(4-fluorophenyl)-6-nitroquinoxaline-2,3-diamine] | 121 | 0.18 | 22 | 12 | 1.4 | 2.14 |  |
| c1ccc(/N=c2\sc3ccccc3s\c2=N/c2ccccc2)cc1 [Compound 20] |  |  | 13.8 | 3 | 4.51 | 4.31 | 4.41 |
